Key:
[1] = Concentration of free hydroxyproline in serum and skin after oral intake; type: in vivo; settings: HOS:HR-1 mouse, 500 mg/kg oral, 0.5-24 hours, FIGS. 1 and 2
Procedure: HOS:HR-1 mouse (seven-week-old female; purchased from Japan SLC, Inc.) was used in the test.
Trans-4-hydroxy-L-proline (Kyowa Hakko Kogyo Co., Ltd.; hereinafter referred to as hydroxyproline) was dissolved in purified water at a concentration of 50 mg/ml, and the resulting solution was orally administered in an amount of 500 mg/kg. After 0.5, 1, 2, 4, 6 and 24 hours, blood was collected from the abdominal vena cava of the mouse under diethyl ether inhalation anesthesia to obtain a serum. After cervical dislocation, dorsal skin was collected, subjected to freeze-disruption and then to extraction with water to obtain a skin extract.
The amount of hydroxyproline in the sera and the skin extract was analyzed by high performance liquid chromatography using ODS column ([…]×15 cm, GL Sciences Inc.) after protein was removed with an equal amount of 2% (w/v) sulfosalicylic acid and the second amino group was labeled with NBD-Cl (4-chloro-7-nitro-2,1,3-benzoxadiazole, Tokyo Chemical Industry Co., Ltd.).

[2] = system: synthesis of collagen in the skin; assay: Subcutaneous sponge implant: amount of hydroxyproline as index of collagen-synthesizing and tissue-restoring ability; type: in vivo; settings: rats, sponge pieces, Student's t-test p < 0.05
Procedure: F344/DuCrlCrlj rats (12 heads, 29-week-old male; purchased from Charles River Laboratories Japan, Inc.) were divided into 2 groups each consisting of 6 rats.
The rats of Group 1 and Group 2 were fed with the feed of Example 5 and the control feed of Comparative Example 1, respectively, ad libitum for 7 days. The abdominal area of each rat was shaved with clippers under anesthesia by intraperitoneal administration of pentobarbital, and cut sponge pieces (ca. 150 mg, 2 mm thick, ca. 38 mm×12 mm; Ivalon, Inc.) were inserted into two spots under the skin, followed by suturing. After further feeding for 7 days, the sponge pieces were taken out.
The sponge pieces were subjected to reaction using 6N hydrochloric acid (20 ml/piece) at 110° C. for 18 hours to decompose them with acid and heat. The products obtained by decomposition with acid and heat were diluted 10 times with 1M borate buffer (pH 10.6), and the amount of hydroxyproline was measured in the same manner as in Test Example 1 and was regarded as an index of the collagen-synthesizing ability and tissue-restoring ability of a rat.
The values were shown in terms of average value ±standard deviation and a test of statistical significance was performed by Student's t-test.

skin wrinkles or sagging = assay: Parallel-group double-blind test, 10-level self-rating of facial skin condition; type: in vivo, human; settings: oral ingestion, 4 weeks, conclusion from Table 2
Procedure: Females aged 47 to 65 years (21 subjects) who chronically suffer from dry skin and rough skin were divided into two groups. After a 2-week observation period, Group 1 (9 subjects) and Group 2 (12 subjects) ingested hard capsules of Example 6 and hard capsules of Comparative Example 2, respectively, for 4 weeks (2 capsules each morning and evening). The test was carried out by parallel-group double-blind test. At the start and the end of the period of ingesting hard capsules, the following questions 1 to 3 were addressed to the subjects (answer “1”: level 1, answer “10”: level 10) and the skin conditions of the subjects were evaluated by a 10-level rating system. • Question 1: Evaluate the level of wrinkles on your face.
1: Wrinkles all over the surface
10: No wrinkles • Question 2: Evaluate the elasticity of the skin of your face.
10: Extreme elasticity • Question 3: Evaluate the firmness of the skin of your face.
The improvement rate (%) was calculated according to Equation 1. Improvement rate (%)=average value of levels after intake/average value of levels before intake×100 [Equation 1]

O=C(O)[C@@H]1C[C@@H](O)CN1 [hydroxyproline, Trans-4-hydroxy-L-proline]
movement of orally ingested hydroxyproline into blood and skin (free hydroxyproline in serum and skin extract) [1]: quickly moves into blood and skin | amount of hydroxyproline derived from heat-decomposed collagen (versus control feed) [2]: significantly increased | wrinkles and sagging of the face (skin wrinkles or sagging): improved

— patent US9433605B2, “Method for promoting synthesis of tissue collagen” (Kyowa Hakko Bio Co., Ltd., priority 2006, dated 2016)
